Results taken from article PMC7316778 (Nature Communications, 2020).
“And” between values parts separate entries of the source, which are not always exact repeats. Equal values may be shown once. Read-outs that look alike come from different tables or passages of the source.

What was measured:
Experiment in all cases: SelectScreen kinase assay
EPHA5 = EPHA5 (Homo sapiens, UniProt P54756)
Description: (§1) Selectivity profiling assays were performed by the Invitrogen SelectScreen™ Services. […] The concentration of ATP was selected to be equal to the KM, unless indicated otherwise.

GAK = target: T1, GAK (Homo sapiens, UniProt O14976)
T1 sequence (O14976 1-1311): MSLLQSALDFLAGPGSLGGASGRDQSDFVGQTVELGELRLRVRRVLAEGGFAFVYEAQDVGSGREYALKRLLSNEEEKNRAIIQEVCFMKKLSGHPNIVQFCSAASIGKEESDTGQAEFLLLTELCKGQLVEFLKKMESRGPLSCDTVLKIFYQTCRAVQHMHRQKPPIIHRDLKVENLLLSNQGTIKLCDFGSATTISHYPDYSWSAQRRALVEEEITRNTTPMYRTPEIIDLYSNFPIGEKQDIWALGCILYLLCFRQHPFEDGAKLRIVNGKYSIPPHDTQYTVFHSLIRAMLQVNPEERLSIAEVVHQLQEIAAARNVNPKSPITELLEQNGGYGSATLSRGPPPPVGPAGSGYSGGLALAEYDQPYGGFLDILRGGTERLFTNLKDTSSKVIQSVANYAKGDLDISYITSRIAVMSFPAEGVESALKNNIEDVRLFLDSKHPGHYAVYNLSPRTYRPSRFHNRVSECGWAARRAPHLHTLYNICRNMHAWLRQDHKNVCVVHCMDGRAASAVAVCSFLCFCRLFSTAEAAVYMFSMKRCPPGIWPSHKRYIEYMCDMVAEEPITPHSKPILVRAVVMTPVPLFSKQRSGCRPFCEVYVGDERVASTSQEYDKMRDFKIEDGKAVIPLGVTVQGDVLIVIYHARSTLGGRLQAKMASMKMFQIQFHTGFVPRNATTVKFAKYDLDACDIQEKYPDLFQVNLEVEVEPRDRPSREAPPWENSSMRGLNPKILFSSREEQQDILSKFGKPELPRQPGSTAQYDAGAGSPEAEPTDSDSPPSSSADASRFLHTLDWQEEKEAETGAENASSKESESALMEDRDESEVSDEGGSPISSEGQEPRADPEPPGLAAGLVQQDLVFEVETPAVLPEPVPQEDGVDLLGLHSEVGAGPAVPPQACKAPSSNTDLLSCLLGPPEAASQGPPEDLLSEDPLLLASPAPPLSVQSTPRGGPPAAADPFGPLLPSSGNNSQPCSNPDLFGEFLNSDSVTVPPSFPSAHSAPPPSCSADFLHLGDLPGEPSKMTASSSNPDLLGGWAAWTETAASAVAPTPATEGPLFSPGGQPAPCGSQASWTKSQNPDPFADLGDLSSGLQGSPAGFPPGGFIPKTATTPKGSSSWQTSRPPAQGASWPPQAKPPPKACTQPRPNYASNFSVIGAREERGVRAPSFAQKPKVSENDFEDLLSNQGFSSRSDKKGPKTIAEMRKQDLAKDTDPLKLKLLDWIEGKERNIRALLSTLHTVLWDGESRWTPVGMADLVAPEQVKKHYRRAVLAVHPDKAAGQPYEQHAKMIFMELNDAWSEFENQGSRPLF
Description: as §1

[1] = target: T2, MAP3K7/MAP3K7IP1 (TAK1-TAB1) (Homo sapiens, UniProt O43318)
T2 sequence (O43318 1-303 limits assumed): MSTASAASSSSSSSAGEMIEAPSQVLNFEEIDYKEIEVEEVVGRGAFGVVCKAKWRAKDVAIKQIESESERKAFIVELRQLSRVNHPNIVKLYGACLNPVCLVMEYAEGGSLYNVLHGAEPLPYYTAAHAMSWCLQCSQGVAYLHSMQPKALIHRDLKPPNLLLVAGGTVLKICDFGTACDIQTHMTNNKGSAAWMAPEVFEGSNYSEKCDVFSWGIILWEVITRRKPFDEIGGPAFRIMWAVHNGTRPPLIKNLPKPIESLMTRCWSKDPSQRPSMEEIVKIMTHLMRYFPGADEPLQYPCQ
T2 sequence (Q15750 437-504 partner limits assumed): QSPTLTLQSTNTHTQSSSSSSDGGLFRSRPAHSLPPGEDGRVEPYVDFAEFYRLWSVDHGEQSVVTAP
Description: as §1

MAPK15 (ERK7) = target: T3, MAPK15 (ERK7) (Homo sapiens, UniProt Q8TD08)
T3 sequence (Q8TD08 1-544): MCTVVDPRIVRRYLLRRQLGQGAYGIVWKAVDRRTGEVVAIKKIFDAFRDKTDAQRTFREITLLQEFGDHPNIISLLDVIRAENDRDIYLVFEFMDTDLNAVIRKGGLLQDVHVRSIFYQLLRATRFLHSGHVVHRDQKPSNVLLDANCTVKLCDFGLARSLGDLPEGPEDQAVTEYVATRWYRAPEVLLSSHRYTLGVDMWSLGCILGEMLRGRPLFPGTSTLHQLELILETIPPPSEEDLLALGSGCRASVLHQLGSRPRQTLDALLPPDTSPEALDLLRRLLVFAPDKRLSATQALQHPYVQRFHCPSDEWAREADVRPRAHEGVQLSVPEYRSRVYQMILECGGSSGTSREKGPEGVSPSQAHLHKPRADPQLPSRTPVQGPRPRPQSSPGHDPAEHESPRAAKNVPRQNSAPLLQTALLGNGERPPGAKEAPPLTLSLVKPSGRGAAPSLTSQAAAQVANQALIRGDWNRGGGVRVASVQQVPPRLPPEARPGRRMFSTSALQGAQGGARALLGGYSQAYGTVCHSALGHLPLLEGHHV
Description: as §1

MKNK2 (MNK2) = MKNK2 (MNK2) (Homo sapiens, UniProt Q9HBH9)
Chain of MKNK2 (MNK2) (Q9HBH9 whole entry, species assumed): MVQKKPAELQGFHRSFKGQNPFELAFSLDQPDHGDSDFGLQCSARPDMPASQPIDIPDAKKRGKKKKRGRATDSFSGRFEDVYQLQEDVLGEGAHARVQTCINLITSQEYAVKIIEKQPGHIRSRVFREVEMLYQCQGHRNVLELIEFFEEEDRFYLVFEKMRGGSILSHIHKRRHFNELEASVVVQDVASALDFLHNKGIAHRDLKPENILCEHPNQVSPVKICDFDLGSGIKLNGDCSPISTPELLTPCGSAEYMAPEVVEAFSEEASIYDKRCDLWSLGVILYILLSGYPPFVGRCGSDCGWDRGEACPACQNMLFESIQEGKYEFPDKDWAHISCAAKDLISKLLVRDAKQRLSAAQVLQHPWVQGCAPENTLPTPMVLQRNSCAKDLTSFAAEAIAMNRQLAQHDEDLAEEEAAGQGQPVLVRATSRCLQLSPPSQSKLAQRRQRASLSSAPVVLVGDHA
Description: as §1

[2] = target: PIK3CB/PIK3R2 (p110 beta/p85 beta) (Homo sapiens, UniProt P42338)
Chain of PIK3CB/PIK3R2 (p110 beta/p85 beta) (P42338 whole entry): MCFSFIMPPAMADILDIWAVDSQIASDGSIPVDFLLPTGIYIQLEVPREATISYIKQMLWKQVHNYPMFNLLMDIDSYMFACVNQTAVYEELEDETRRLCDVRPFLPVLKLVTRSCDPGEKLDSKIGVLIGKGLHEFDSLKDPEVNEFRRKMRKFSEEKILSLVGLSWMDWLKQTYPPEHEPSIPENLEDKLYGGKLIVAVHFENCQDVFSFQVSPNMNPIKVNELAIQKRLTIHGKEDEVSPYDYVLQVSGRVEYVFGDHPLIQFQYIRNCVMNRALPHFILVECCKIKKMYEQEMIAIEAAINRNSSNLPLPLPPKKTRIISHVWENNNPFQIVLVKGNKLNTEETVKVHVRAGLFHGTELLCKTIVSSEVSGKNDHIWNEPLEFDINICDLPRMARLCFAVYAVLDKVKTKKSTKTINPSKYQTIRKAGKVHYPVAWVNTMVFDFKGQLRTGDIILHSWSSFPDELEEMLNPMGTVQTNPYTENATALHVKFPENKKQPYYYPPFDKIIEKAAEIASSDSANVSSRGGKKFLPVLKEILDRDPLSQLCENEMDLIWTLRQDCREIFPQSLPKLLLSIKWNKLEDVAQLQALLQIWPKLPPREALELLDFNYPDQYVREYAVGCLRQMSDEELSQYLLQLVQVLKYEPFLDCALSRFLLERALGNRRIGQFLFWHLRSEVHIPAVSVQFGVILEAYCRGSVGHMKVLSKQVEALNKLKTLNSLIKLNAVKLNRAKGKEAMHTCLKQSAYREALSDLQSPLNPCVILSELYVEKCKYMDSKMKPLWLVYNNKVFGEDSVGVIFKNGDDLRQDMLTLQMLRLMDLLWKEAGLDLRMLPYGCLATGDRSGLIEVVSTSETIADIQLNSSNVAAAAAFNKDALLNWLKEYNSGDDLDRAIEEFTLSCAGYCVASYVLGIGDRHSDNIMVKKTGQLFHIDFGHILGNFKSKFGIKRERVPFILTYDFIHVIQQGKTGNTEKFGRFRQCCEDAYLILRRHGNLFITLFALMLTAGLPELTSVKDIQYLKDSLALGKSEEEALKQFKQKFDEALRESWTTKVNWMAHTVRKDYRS
Chain of PIK3CB/PIK3R2 (p110 beta/p85 beta) (O00459 whole entry partner): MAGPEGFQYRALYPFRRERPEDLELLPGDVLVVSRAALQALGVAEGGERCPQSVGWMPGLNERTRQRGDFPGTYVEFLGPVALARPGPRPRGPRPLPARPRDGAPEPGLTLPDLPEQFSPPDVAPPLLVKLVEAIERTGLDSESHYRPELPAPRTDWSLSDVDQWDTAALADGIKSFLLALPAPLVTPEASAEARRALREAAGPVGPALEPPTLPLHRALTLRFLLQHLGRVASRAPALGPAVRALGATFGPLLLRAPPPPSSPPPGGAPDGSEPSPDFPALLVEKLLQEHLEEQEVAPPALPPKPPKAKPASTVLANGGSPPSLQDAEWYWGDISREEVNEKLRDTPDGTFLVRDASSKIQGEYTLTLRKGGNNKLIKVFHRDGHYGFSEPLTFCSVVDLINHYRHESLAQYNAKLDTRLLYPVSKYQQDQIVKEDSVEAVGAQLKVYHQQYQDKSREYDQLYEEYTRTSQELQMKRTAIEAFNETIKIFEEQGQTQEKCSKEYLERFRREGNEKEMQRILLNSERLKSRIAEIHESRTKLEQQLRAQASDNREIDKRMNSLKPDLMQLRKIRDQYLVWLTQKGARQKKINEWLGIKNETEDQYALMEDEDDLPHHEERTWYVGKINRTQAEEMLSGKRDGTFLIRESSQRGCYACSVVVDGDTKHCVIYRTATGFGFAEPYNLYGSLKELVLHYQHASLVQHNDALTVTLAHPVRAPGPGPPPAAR
Description: as §1

STK4 (MST1) = STK4 (MST1) (Homo sapiens, UniProt Q13043)
Chain of STK4 (MST1) (Q13043 whole entry): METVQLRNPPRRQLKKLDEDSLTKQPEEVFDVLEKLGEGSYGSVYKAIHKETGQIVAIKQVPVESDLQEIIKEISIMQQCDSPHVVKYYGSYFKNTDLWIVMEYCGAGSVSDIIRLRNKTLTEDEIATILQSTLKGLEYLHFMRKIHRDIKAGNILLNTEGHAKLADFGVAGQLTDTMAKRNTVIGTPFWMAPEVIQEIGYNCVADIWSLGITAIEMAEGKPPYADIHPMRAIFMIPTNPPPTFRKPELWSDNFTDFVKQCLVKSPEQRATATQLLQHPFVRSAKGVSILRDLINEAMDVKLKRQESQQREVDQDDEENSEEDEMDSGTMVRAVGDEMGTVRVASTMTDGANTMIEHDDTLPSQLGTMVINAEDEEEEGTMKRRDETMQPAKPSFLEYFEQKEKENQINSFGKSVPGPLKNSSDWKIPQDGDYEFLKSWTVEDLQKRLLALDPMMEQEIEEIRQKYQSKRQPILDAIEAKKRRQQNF
Description: as §1

[3] = 1 h, 1 μM WEL028, 1 h preincubation
[4] = IC50 on that kinase divided by IC50 on FES^S700C

Chain of EPHA5 (P54756 25-1037): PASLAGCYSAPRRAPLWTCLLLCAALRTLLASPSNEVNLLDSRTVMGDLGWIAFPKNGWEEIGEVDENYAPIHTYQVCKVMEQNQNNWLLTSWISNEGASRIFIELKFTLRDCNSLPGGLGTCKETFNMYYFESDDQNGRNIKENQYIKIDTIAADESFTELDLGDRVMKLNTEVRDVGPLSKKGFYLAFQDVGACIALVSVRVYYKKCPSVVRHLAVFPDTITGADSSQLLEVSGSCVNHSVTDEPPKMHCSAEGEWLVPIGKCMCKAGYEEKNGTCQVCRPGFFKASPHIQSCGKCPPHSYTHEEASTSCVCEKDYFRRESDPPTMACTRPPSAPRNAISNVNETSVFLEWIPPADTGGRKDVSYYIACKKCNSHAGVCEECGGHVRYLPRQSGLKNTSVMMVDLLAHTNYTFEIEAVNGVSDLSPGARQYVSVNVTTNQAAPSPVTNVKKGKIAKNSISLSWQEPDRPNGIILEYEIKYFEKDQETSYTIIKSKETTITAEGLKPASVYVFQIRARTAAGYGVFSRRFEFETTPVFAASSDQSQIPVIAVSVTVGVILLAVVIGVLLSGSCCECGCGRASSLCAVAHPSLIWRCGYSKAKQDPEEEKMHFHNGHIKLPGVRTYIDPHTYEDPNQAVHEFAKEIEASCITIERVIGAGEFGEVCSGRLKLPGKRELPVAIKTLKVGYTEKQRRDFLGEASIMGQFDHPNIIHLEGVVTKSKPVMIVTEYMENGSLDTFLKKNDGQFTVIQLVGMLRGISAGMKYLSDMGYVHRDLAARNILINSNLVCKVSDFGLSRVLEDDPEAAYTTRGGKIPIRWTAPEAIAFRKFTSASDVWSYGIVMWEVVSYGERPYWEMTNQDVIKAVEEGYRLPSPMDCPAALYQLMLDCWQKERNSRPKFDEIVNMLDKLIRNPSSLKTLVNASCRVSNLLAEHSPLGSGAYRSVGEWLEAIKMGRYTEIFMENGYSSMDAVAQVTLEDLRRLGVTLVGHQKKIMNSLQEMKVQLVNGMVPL

C#CCOc1ccc(Nc2ncc(Cl)c(Nc3ccccc3NC(=O)C=C)n2)c(OC)c1 [Compound 6]
Inhibition (%) (EPHA5; 1 μM WEL028, 1 h preincubation): 0%
Inhibition at 1 µM (%) (EPHA5; EPHA5, 1 µM, ZLYTE, ATP Km app, listed as WEL028, 1 µM): 3% and -2%
IC50 (GAK): 12.6 nM
inhibition at 1 µM (GAK; [3]): 108%
Inhibition at 1 µM (%) (GAK; GAK, 1 µM, LanthaScreen Binding, listed as WEL028, 1 µM): 109%
Apparent fold selectivity (GAK; [4]): 3 fold
inhibition at 1 µM (GAK; read-out: Inhibition at 1 µM (%), GAK, 1 µM, LanthaScreen Binding): 108%
inhibition at 1 µM [1, 3]: 13%
Inhibition at 1 µM (%) ([1]; MAP3K7/MAP3K7IP1 (TAK1-TAB1), 1 µM, LanthaScreen Binding, listed as WEL028, 1 µM): 15%
inhibition at 1 µM ([1]; read-out: Inhibition at 1 µM (%), MAP3K7/MAP3K7IP1 (TAK1-TAB1), 1 µM, LanthaScreen Binding): 11%
inhibition at 1 µM (MAPK15 (ERK7); [3]): 5%
Inhibition at 1 µM (%) (MAPK15 (ERK7); MAPK15 (ERK7), 1 µM, LanthaScreen Binding, listed as WEL028, 1 µM): 4%
inhibition at 1 µM (MAPK15 (ERK7); read-out: Inhibition at 1 µM (%), MAPK15 (ERK7), 1 µM, LanthaScreen Binding): 7%
IC50 (MKNK2 (MNK2)): 100 nM
inhibition at 1 µM (MKNK2 (MNK2); [3]): 93%
inhibition at 10 µM (MKNK2 (MNK2); 1 h, log[inhibitor] (M) -5.00, LanthaScreen Binding): 83%
inhibition at 3.311 µM (MKNK2 (MNK2); 1 h, log[inhibitor] (M) -5.48, LanthaScreen Binding): 97%
inhibition at 1.122 µM (MKNK2 (MNK2); 1 h, log[inhibitor] (M) -5.95, LanthaScreen Binding): 94%
inhibition at 0.3715 µM (MKNK2 (MNK2); 1 h, log[inhibitor] (M) -6.43, LanthaScreen Binding): 82%
inhibition at 0.123 µM (MKNK2 (MNK2); 1 h, log[inhibitor] (M) -6.91, LanthaScreen Binding): 54%
inhibition at 0.0138 µM (MKNK2 (MNK2); 1 h, log[inhibitor] (M) -7.86, LanthaScreen Binding): 13%
inhibition at 0.0004898 µM (MKNK2 (MNK2); 1 h, log[inhibitor] (M) -9.31, LanthaScreen Binding): 4%
Apparent fold selectivity (MKNK2 (MNK2); [4]): 23 fold
Inhibition at 1 µM (%) (MKNK2 (MNK2); MKNK2 (MNK2), 1 µM, LanthaScreen Binding, listed as WEL028, 1 µM): 96%
inhibition at 1 µM (MKNK2 (MNK2); read-out: Inhibition at 1 µM (%), MKNK2 (MNK2), 1 µM, LanthaScreen Binding): 89%
inhibition at 1 µM [2, 3]: 2%
Inhibition at 1 µM (%) ([2]; PIK3CB/PIK3R2 (p110 beta/p85 beta), 1 µM, Adapta, ATP 10, listed as WEL028, 1 µM): 4% and -1%
Inhibition (%) (STK4 (MST1); 1 μM WEL028, 1 h preincubation): 3%
Inhibition at 1 µM (%) (STK4 (MST1); 1 µM, ZLYTE, ATP Km app): 11%
